Assay results from publication PMC10165273, “Itch receptor MRGPRX4 interacts with the receptor activity–modifying proteins” (The Journal of Biological Chemistry, 2023).
Like-named read-outs stand apart in the source and are kept apart here.

Target: T1, MRGPRX4 (Homo sapiens, UniProt Q96LA9)
T1 construct: expressed in transfected cells; host or cells: HEK293T
Assay: IP1 accumulation HTRF assay, MRGPRX4;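 on IP1 accumulation, dose-response (Figure 1a): 0% is unstimulated mock-transfected cells and 100% is fully stimulated MRGPRX4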
Type: cell-based
Conditions: 2 h; for activation at 16 µM: log [agonist] (M) -4.79588; for activation at 3.2 µM: log [agonist] (M) -5.49485; for activation at 0.64 µM: log [agonist] (M) -6.19382; for activation at 0.128 µM: log [agonist] (M) -6.89279; for activation at 0.0256 µM: log [agonist] (M) -7.59176

[1] = SP-FLAG-Nluc-HT7-MRGX4_Tet-GFP10-1D4, read-out: normalized IP1 accumulation
[2] = SP-FLAG-Nluc-HT7-MRGX4_Tet-GFP10-1D4 no dox, read-out: normalized IP1 accumulation

T1 sequence (Q96LA9 whole entry): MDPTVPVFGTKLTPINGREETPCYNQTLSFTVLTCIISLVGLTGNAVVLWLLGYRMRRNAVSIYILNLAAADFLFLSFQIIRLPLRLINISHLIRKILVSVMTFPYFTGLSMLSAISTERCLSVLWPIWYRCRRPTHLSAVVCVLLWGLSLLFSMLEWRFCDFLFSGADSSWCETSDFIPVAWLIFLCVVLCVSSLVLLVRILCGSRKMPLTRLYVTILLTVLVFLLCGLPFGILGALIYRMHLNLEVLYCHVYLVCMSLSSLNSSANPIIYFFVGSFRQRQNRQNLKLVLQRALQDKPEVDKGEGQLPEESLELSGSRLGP

In the case of CC(C)[C@H]1CC[C@H](C(=O)N[C@H](Cc2ccccc2)C(=O)O)CC1 [Nateglinide], the activation at 100 µM (HA-MRGX4-1D4, log [agonist] (M) -4, read-out: normalized IP1 accumulation) is reported as 84.6%, the activation at 20 µM (HA-MRGX4-1D4, log [agonist] (M) -4.69897, read-out: normalized IP1 accumulation) is reported as 63.4% and the activation at 4 µM (HA-MRGX4-1D4, log [agonist] (M) -5.39794, read-out: normalized IP1 accumulation) is reported as 30.8%. It also gave an activation at 0.8 µM (HA-MRGX4-1D4, log [agonist] (M) -6.09691, read-out: normalized IP1 accumulation) of 17.7%, an activation at […] (HA-MRGX4-1D4, log [agonist] (M) -6.79588, read-out: normalized IP1 accumulation) of 12.4% and an activation at 0.032 µM (HA-MRGX4-1D4, log [agonist] (M) -7.49485, read-out: normalized IP1 accumulation) of 12.5%. The activation at 100 µM (MRGPRX4: 0.25pg/cell, log [Nateglinide] (M) -4, Fig S1b, read-out: IP1 accumulation) was 76.9%, the activation at 20 µM (MRGPRX4: 0.25pg/cell, log [Nateglinide] (M) -4.69897, Fig S1b, read-out: IP1 accumulation) was 53.7% and the activation at 4 µM (MRGPRX4: 0.25pg/cell, log [Nateglinide] (M) -5.39794, Fig S1b, read-out: IP1 accumulation) was 21.2%. For the same molecule, the activation at […] (MRGPRX4: 0.25pg/cell, log [Nateglinide] (M) -6.79588, Fig S1b, read-out: IP1 accumulation) was 3.43%, the activation at 0.032 µM (MRGPRX4: 0.25pg/cell, log [Nateglinide] (M) -7.49485, Fig S1b, read-out: IP1 accumulation) was 3.78% and the activation at 100 µM (MRGPRX4: 0.5pg/cell, log [Nateglinide] (M) -4, Fig S1b, read-out: IP1 accumulation) was 92.5%. The activation at 20 µM (MRGPRX4: 0.5pg/cell, log [Nateglinide] (M) -4.69897, Fig S1b, read-out: IP1 accumulation) was 65.9%, the activation at 4 µM (MRGPRX4: 0.5pg/cell, log [Nateglinide] (M) -5.39794, Fig S1b, read-out: IP1 accumulation) was 33% and the activation at 0.8 µM (MRGPRX4: 0.5pg/cell, log [Nateglinide] (M) -6.09691, Fig S1b, read-out: IP1 accumulation) was 11.8%. It also gave an activation at […] (MRGPRX4: 0.5pg/cell, log [Nateglinide] (M) -6.79588, Fig S1b, read-out: IP1 accumulation) of 6.22%, an activation at 0.032 µM (MRGPRX4: 0.5pg/cell, log [Nateglinide] (M) -7.49485, Fig S1b, read-out: IP1 accumulation) of 5.53% and an activation at 100 µM (MRGPRX4: 1pg/cell, log [Nateglinide] (M) -4, Fig S1b, read-out: IP1 accumulation) of 92.1%. It also gave an activation at 20 µM (MRGPRX4: 1pg/cell, log [Nateglinide] (M) -4.69897, Fig S1b, read-out: IP1 accumulation) of 75.4%, an activation at 4 µM (MRGPRX4: 1pg/cell, log [Nateglinide] (M) -5.39794, Fig S1b, read-out: IP1 accumulation) of 37.9% and an activation at 0.8 µM (MRGPRX4: 1pg/cell, log [Nateglinide] (M) -6.09691, Fig S1b, read-out: IP1 accumulation) of 17.7%. It also gave an activation at […] (MRGPRX4: 1pg/cell, log [Nateglinide] (M) -6.79588, Fig S1b, read-out: IP1 accumulation) of 11.7%, an activation at 0.032 µM (MRGPRX4: 1pg/cell, log [Nateglinide] (M) -7.49485, Fig S1b, read-out: IP1 accumulation) of 9.46% and an activation at 100 µM (MRGPRX4: 2pg/cell, log [Nateglinide] (M) -4, Fig S1b/c, read-out: IP1 accumulation) of 100%. For the same molecule, the activation at 20 µM (MRGPRX4: 2pg/cell, log [Nateglinide] (M) -4.69897, Fig S1b/c, read-out: IP1 accumulation) was 88.5%, the activation at 4 µM (MRGPRX4: 2pg/cell, log [Nateglinide] (M) -5.39794, Fig S1b/c, read-out: IP1 accumulation) was 44.1% and the activation at 0.8 µM (MRGPRX4: 2pg/cell, log [Nateglinide] (M) -6.09691, Fig S1b/c, read-out: IP1 accumulation) was 21.4%. For the same molecule, the activation at […] (MRGPRX4: 2pg/cell, log [Nateglinide] (M) -6.79588, Fig S1b/c, read-out: IP1 accumulation) was 13.8%, the activation at 0.032 µM (MRGPRX4: 2pg/cell, log [Nateglinide] (M) -7.49485, Fig S1b/c, read-out: IP1 accumulation) was 12.6% and the activation at 100 µM (MRGPRX4: […], log [Nateglinide] (M) -4, Fig S1b, read-out: IP1 accumulation) was 68.7%. For the same molecule, the activation at 20 µM (MRGPRX4: […], log [Nateglinide] (M) -4.69897, Fig S1b, read-out: IP1 accumulation) was 45%, the activation at 4 µM (MRGPRX4: […], log [Nateglinide] (M) -5.39794, Fig S1b, read-out: IP1 accumulation) was 17.6% and the activation at 0.8 µM (MRGPRX4: […], log [Nateglinide] (M) -6.09691, Fig S1b, read-out: IP1 accumulation) was 5.45%. It also gave an activation at 0.032 µM (MRGPRX4: […], log [Nateglinide] (M) -7.49485, Fig S1b, read-out: IP1 accumulation) of 2.09%, an activation at 30 µM (MRGPRX4, nateglinide 30uM, Fig S1d) of 86.4% and an activation at 100 µM (MRGPRX4, nateglinide 100uM, Fig S1d, read-out: IP1 accumulation) of 100%. It also gave an activation at 100 µM (MRGPRX4 alone, log [Nateglinide] (M) -4, Fig S3a-c, read-out: IP1 accumulation) of 100%, an activation at 20 µM (MRGPRX4 alone, log [Nateglinide] (M) -4.69897, Fig S3a-c, read-out: IP1 accumulation) of 85.7% and an activation at 4 µM (MRGPRX4 alone, log [Nateglinide] (M) -5.39794, Fig S3a-c, read-out: IP1 accumulation) of 46.2%. For the same molecule, the activation at 0.8 µM (MRGPRX4 alone, log [Nateglinide] (M) -6.09691, Fig S3a-c, read-out: IP1 accumulation) was 23%, the activation at […] (MRGPRX4 alone, log [Nateglinide] (M) -6.79588, Fig S3a-c, read-out: IP1 accumulation) was 17.8% and the activation at 0.032 µM (MRGPRX4 alone, log [Nateglinide] (M) -7.49485, Fig S3a-c, read-out: IP1 accumulation) was 17.4%. The activation at 30 µM (MRGX4 + Ng, 30uM, U73122 30uM, Fig S1e) was 21.3%, the activation at 30 µM (MRGX4 + Ng, 30uM, buffer, Fig S1e) was 84.5% and the activation at 100 µM (MRGX4 + Ng, 100uM, U73122 30uM, Fig S1e, read-out: IP1 accumulation) was 31%. It also gave an activation at 100 µM (MRGX4 + Ng, 100uM, buffer, Fig S1e, read-out: IP1 accumulation) of 100%, an activation at 80 µM (SP-FLAG-Nluc-HT7-MRGX4_Tet-GFP10-1D4, log [agonist] (M) -4.09691, read-out: normalized IP1 accumulation) of 49.1% and an activation at 16 µM [1] of 42%. It also gave an activation at 3.2 µM [1] of 23.5%, an activation at 0.64 µM [1] of 12.9% and an activation at 0.128 µM [1] of 10.3%. The activation at 0.0256 µM [1] was 9.54%, the activation at 16 µM [2] was 10.5% and the activation at 3.2 µM [2] was 7.88%. For the same molecule, the activation at 0.64 µM [2] was 7.83%, the activation at 0.128 µM [2] was 7.62% and the activation at 0.0256 µM [2] was 8.15%. It also gave an activation at 100 µM (SP-Flag-MRGX4-1D4, log [agonist] (M) -4, read-out: normalized IP1 accumulation) of 85.6%, an activation at 20 µM (SP-Flag-MRGX4-1D4, log [agonist] (M) -4.69897, read-out: normalized IP1 accumulation) of 66.9% and an activation at 4 µM (SP-Flag-MRGX4-1D4, log [agonist] (M) -5.39794, read-out: normalized IP1 accumulation) of 28.3%. For the same molecule, the activation at 0.8 µM (SP-Flag-MRGX4-1D4, log [agonist] (M) -6.09691, read-out: normalized IP1 accumulation) was 11.8%, the activation at […] (SP-Flag-MRGX4-1D4, log [agonist] (M) -6.79588, read-out: normalized IP1 accumulation) was 7.74% and the activation at 0.032 µM (SP-Flag-MRGX4-1D4, log [agonist] (M) -7.49485, read-out: normalized IP1 accumulation) was 8.22%. The activation at 100 µM (SP-Flag-MRGX4-GFP10-1D4, log [agonist] (M) -4, read-out: normalized IP1 accumulation) was 100%, the activation at 20 µM (SP-Flag-MRGX4-GFP10-1D4, log [agonist] (M) -4.69897, read-out: normalized IP1 accumulation) was 74% and the activation at 4 µM (SP-Flag-MRGX4-GFP10-1D4, log [agonist] (M) -5.39794, read-out: normalized IP1 accumulation) was 34.7%. The activation at 0.8 µM (SP-Flag-MRGX4-GFP10-1D4, log [agonist] (M) -6.09691, read-out: normalized IP1 accumulation) was 13.4%, the activation at […] (SP-Flag-MRGX4-GFP10-1D4, log [agonist] (M) -6.79588, read-out: normalized IP1 accumulation) was 8.46% and the activation at 0.032 µM (SP-Flag-MRGX4-GFP10-1D4, log [agonist] (M) -7.49485, read-out: normalized IP1 accumulation) was 8.07%. It also gave an activation at 3.7037 µM (log [agonist] (M) -5.43136, MRGX4-transfected, individual replicates, read-out: IP1 accumulation, dose-response (Figure 1a)) of 40%, an activation at 0.4115 µM (log [agonist] (M) -6.38561, MRGX4-transfected, individual replicates, read-out: IP1 accumulation, dose-response (Figure 1a)) of 19.1% and an activation at 100 µM (log [nateglinide] (M) -4, Dox 13 ng/mL, Supplementary Figure 5a, read-out: IP1 accumulation (normalized)) of 79.6%. The activation at 100 µM (log [nateglinide] (M) -4, Dox 13 ng/mL, Supplementary Figure 5b, read-out: IP1 accumulation (normalized)) was 13.6%, the activation at 100 µM (log [nateglinide] (M) -4, Dox 13 ng/mL, Supplementary Figure 5c, read-out: IP1 accumulation (normalized)) was 46.6% and the activation at 100 µM (log [nateglinide] (M) -4, Dox 40 ng/mL, Supplementary Figure 5a, read-out: IP1 accumulation (normalized)) was 82.2%.
